US8084644B2, “Iminopropene compound and use thereof” (Sumitomo Chemical Company, Limited, priority 2005, dated 2011)

What was measured:
[1] = test system: Haemaphysalis longicornis; assay: Test Example 11: filter paper bag contact test on ticks; assay type: in vivo; conditions: 48 h, 0.5 mg test compound on 5 cm×10 cm filter paper, after 2 days
Experimental: 0.5 mg of the test compound was dissolved to […]. Onto one side of filter paper having 5 cm×10 cm, the solution was applied uniformly and then air-dried. Thereafter, the filter paper was folded in half and fixed by paper clips at the side to form bag like shape. Ten Haemaphysalis longicornis was put into the bag, and then the bag was closed with a paper clip. After 2 days, the number of dead insects was examined.

Spodoptela litura = assay: Test Example 13: cabbage test on common cutworm; assay type: in vivo; conditions: 50 ppm, fourth-instar, after four days
Experimental: 0.1 ml of the mixture of xylene and N,N-dimethylformamide (xylene:N,N-dimethylformamide=1:1) and 0.04 ml of the mixture of xylene and Sorpol 3005X (TOHO Chemical Industry Co. LTD) (xylene:Sorpol 3005X=1:9) were added to 16 mg of the each test compound. The mixture was diluted with water as that the active ingredient concentration came to prescribed concentration. Furthermore, spreader (Dain: Takeda Pharmaceutical Co. […] The test solution was applied to a cabbage (Brassicae oleracea) in a fifth-leaf stage at a rate 20 ml per pot. After air-drying, ten fourth-instar worm of common cutworm (Spodoptela litura) was placed onto the cabbage, and the cabbage was covered with a cup having holes. After four days, the number of dead worm was examined.

melting point [°C]	Compound	mortality at 0.5 mg/filter paper [1] [%]	index number (mortality) (Spodoptela litura)
110 to 116	O=S(=O)(C=CC(=Nc1ccccc1)Oc1ccccc1)c1ccccc1 [(99), Phenyl N-phenyl-3-(phenylsulfonyl)acrylimidate]		
77 to 81	C(=CC(=Nc1ccccc1)OCc1ccccc1)Sc1ccccc1 [(60), Benzyl N-phenyl-3-(phenylthio)acrylimidate]		
134 to 136	CC(C)(C)SC=CC(=Nc1ccccc1)Oc1ccccc1 [(140), Phenyl 3-(1,1-dimethylethylthio)-N-phenylacrylimidate]		
127 to 128	C(=CN1CCCCC1)C(=Nc1ccccc1)Oc1ccccc1 [(134), Phenyl N-phenyl-3-(piperidino)acrylimidate]		
130 to 132	CN(C=CC(=Nc1ccccc1)Oc1ccccc1)c1ccccc1 [(132), Phenyl 3-(N′-methyl-N′-phenylamino)-N-phenylacrylimidate]		
	Cc1ccc(SC=CC(=Nc2ccccc2)Sc2ccccc2)cc1 [(130), Phenyl 3-(4-methylphenylthio)-N-(phenyl)thioacrylimidate]	100	3 (mortality 80 to 99%)
